Assay results taken from US7951232B2, “Surface coating compositions and methods” (Elevance Renewable Sciences, Inc., priority 2006, dated 2011).
Like-named read-outs stand apart in the source and are kept apart here.

Columns and labels:
[1] = tested on: Penecillium verrucosum, ATCC 18381; test: Preservative effectiveness, USP <51>; type: cell-based
Procedure: (§1) The effectiveness of 9-decenoic acid on Aspergillus and Penecillium which occasionally result in in-can spoilage of paint was determined using the protocol on preservative effectiveness found in the United States Pharmacopeia (USP), 25th Edition, 2002, USP <51>.
(§2) Stock cultures of the fungi Aspergillus flavus, ATCC 9170 and Penecillium verrucosum, ATCC 18381 were cultured onto Sabouraud Dextrose Agar (SDA) and incubated at 25-30° C. for at least 1 week. The spores were washed form the agar surface with sterile saline, filtered through sterile glass wool, enumerated and stored under refrigeration for no longer than thirty days. On the day of the test, the suspension was diluted to approximately 10^8 CFU/ml.
(§3) The 9-decenoic acid was diluted in the same manner as previously described to achieve, 0.25, 0.125, 0.0625, 0.03, 0.015, 0.0078 and 0.0039% and dispensed in 20 ml aliquots in sterile test tubes. For each concentration tested, a 0.1 ml aliquot of each inoculum was added to a final concentration of 10^5 to 10^6 CFU/ml. The tubes were incubated at room temperature and sampled on days 0, 1, 2, 4, 7, 14, 21 and 28.
(§4) At each sample point, 1.0 ml aliquots were withdrawn, serially diluted and plated in triplicate on SDA. The plates were incubated at 25-30° C. for 3-7 days. The colonies were counted and the average CFU/ml was calculated. Controls for purity, viability and sterility were performed as described previously.
(§5) According to the US Pharmacopoeia, a test compound is an effective preservative if the concentrations of viable fungi remain at or below the initial concentrations during the first fourteen days and after 28 days. According to this definition, 9-decenoic acid is an effective preservative against Aspergillus flavus and Penecillium verrucosum at concentrations as low at 0.078%. […] For A. flavus, 9-decenoic acid was fungicidal at 0.015% after 21 days and at day 0 at 0.03%.

[2] = tested on: Aspergillus flavus, ATCC 9170; test: Preservative effectiveness, USP <51>; type: cell-based
Procedure: as §1, §2, §3, §4, §5

C=CCCCCCCCC(=O)O [9-decenoic acid]
1.2 log: Log reduction of organisms after exposure ([2]; 0.015%, exposure 0 days)
5.1 log: Log reduction of organisms after exposure ([1]; 0.015%, exposure 2 days) | Log reduction of organisms after exposure ([1]; 0.015%, exposure 4 days) | Log reduction of organisms after exposure ([1]; 0.015%, exposure 7 days) | Log reduction of organisms after exposure ([1]; 0.015%, exposure 14 days) | Log reduction of organisms after exposure ([1]; 0.015%, exposure 21 days) | Log reduction of organisms after exposure ([1]; 0.015%, exposure 28 days) | Log reduction of organisms after exposure ([1]; 0.03%, exposure 1 day) | Log reduction of organisms after exposure ([1]; 0.03%, exposure 2 days) | Log reduction of organisms after exposure ([1]; 0.03%, exposure 4 days) | Log reduction of organisms after exposure ([1]; 0.03%, exposure 7 days) | Log reduction of organisms after exposure ([1]; 0.03%, exposure 14 days) | Log reduction of organisms after exposure ([1]; 0.03%, exposure 21 days) | Log reduction of organisms after exposure ([1]; 0.03%, exposure 28 days) | Log reduction of organisms after exposure ([1]; 0.0625%, exposure 1 day) | Log reduction of organisms after exposure ([1]; 0.0625%, exposure 2 days) | Log reduction of organisms after exposure ([1]; 0.0625%, exposure 4 days) | Log reduction of organisms after exposure ([1]; 0.0625%, exposure 7 days) | Log reduction of organisms after exposure ([1]; 0.0625%, exposure 14 days) | Log reduction of organisms after exposure ([1]; 0.0625%, exposure 21 days) | Log reduction of organisms after exposure ([1]; 0.0625%, exposure 28 days) | Log reduction of organisms after exposure ([2]; 0.015%, exposure 21 days) | Log reduction of organisms after exposure ([2]; 0.03%, exposure 0 days) | Log reduction of organisms after exposure ([2]; 0.03%, exposure 1 day) | Log reduction of organisms after exposure ([2]; 0.03%, exposure 2 days) | Log reduction of organisms after exposure ([2]; 0.03%, exposure 4 days) | Log reduction of organisms after exposure ([2]; 0.03%, exposure 7 days) | Log reduction of organisms after exposure ([2]; 0.03%, exposure 14 days) | Log reduction of organisms after exposure ([2]; 0.03%, exposure 21 days) | Log reduction of organisms after exposure ([2]; 0.03%, exposure 28 days) | Log reduction of organisms after exposure ([2]; 0.0625%, exposure 0 days) | Log reduction of organisms after exposure ([2]; 0.0625%, exposure 1 day) | Log reduction of organisms after exposure ([2]; 0.0625%, exposure 2 days) | Log reduction of organisms after exposure ([2]; 0.0625%, exposure 4 days) | Log reduction of organisms after exposure ([2]; 0.0625%, exposure 7 days) | Log reduction of organisms after exposure ([2]; 0.0625%, exposure 14 days) | Log reduction of organisms after exposure ([2]; 0.0625%, exposure 21 days) | Log reduction of organisms after exposure ([2]; 0.0625%, exposure 28 days)
0.1 log: Log reduction of organisms after exposure ([1]; 0.0078%, exposure 1 day) | Log reduction of organisms after exposure ([1]; 0.015%, exposure 0 days)
1.9 log: Log reduction of organisms after exposure ([1]; 0.0078%, exposure 28 days)
3.4 log: Log reduction of organisms after exposure ([1]; 0.03%, exposure 0 days)
1.8 log: Log reduction of organisms after exposure ([1]; 0.0078%, exposure 21 days)
3.1 log: Log reduction of organisms after exposure ([2]; 0.015%, exposure 2 days)
3.9 log: Log reduction of organisms after exposure ([2]; 0.015%, exposure 4 days) | Log reduction of organisms after exposure ([2]; 0.015%, exposure 7 days)
0 log: Log reduction of organisms after exposure ([1]; 0.0078%, exposure 0 days)
0.2 log: Log reduction of organisms after exposure ([2]; 0.0078%, exposure 0 days) | Log reduction of organisms after exposure ([2]; 0.0078%, exposure 2 days)
21 days: time after which fungicidal ([2]; at 0.015%)
1 days: time after which fungicidal ([1]; at 0.03%)
4.3 log: Log reduction of organisms after exposure ([1]; 0.0625%, exposure 0 days)
4.8 log: Log reduction of organisms after exposure ([2]; 0.015%, exposure 14 days) | Log reduction of organisms after exposure ([2]; 0.015%, exposure 28 days)
2.9 log: Log reduction of organisms after exposure ([2]; 0.015%, exposure 1 day)
3.0 log: Log reduction of organisms after exposure ([1]; 0.015%, exposure 1 day)
0 days: time after which fungicidal ([2]; at 0.03%)
0.8 log: Log reduction of organisms after exposure ([1]; 0.0078%, exposure 2 days) | Log reduction of organisms after exposure ([1]; 0.0078%, exposure 4 days) | Log reduction of organisms after exposure ([1]; 0.0078%, exposure 7 days) | Log reduction of organisms after exposure ([1]; 0.0078%, exposure 14 days) | Log reduction of organisms after exposure ([2]; 0.0078%, exposure 21 days) | Log reduction of organisms after exposure ([2]; 0.0078%, exposure 28 days)
2 days: time after which fungicidal [1]
0.4 log: Log reduction of organisms after exposure ([2]; 0.0078%, exposure 4 days) | Log reduction of organisms after exposure ([2]; 0.0078%, exposure 7 days) | Log reduction of organisms after exposure ([2]; 0.0078%, exposure 14 days)
0.3 log: Log reduction of organisms after exposure ([2]; 0.0078%, exposure 1 day)
